The values that follow come from ChEMBL document CHEMBL3608235, “Pyrroloaryls and pyrroloheteroaryls: Inhibitors of the HIV fusion/attachment, reverse transcriptase and integrase” (Bioorg Med Chem, 2015).

pEC50, pIC50: −log10 of the molar value. Values after ≈ are worked out from the molar mass of the structure shown.

Data set [1] relates to Human immunodeficiency virus 1. Description: Antiviral activity against HIV1. It is filed as functional, organism-based.
Data set [2] has as its system Human immunodeficiency virus. Description: Antiviral activity against HIV infected in human MT4 cells assessed as reduction in virus-induced cytopathogenicity. It is filed as functional, organism-based. The following applies: Human immunodeficiency virus 1, MT4. In general terms: Damage to the host cells serves as the signal in cytopathic effect assays.
The subject of data set [3] is Human immunodeficiency virus 1. The data set can be described thus: Antiviral activity against HIV1 3B infected in human MT2 cells assessed as reduction in virus-induced cell death. It is filed as functional. Particulars: Human immunodeficiency virus 1, 3B.
A short description of data set [4]: Cytotoxicity against human MT2 cells. It is filed as cell-based. Particulars: read-out: TC50 (the source's name).
Data set [5] relates to Human immunodeficiency virus. Description: Antiviral activity against HIV expressing raltegravir-resistant integrase mutants. In kind it is functional, organism-based. Particulars: Human immunodeficiency virus 1.
Data set [6] concerns Human immunodeficiency virus 1. The data set can be described thus: Antiviral activity against HIV1 infected in human C8166 cells assessed as inhibition of virus replication. In kind it is functional, organism-based. The following applies: Human immunodeficiency virus 1, C8166.
Data set [7] is described as follows: Cytotoxicity against human C8166 cells. In kind it is cell-based. Particulars: human, C8166 cells.
Data set [8] has as its system Human immunodeficiency virus 1. The data set can be described thus: Antiviral activity against HIV1 JRFL. It is filed as functional, organism-based. The following applies: Human immunodeficiency virus 1, JRFL.
Data set [9] relates to Human immunodeficiency virus 1. Description: Antiviral activity against HIV1 SF162. Particulars: Human immunodeficiency virus 1, SF162. It is filed as functional, organism-based.
For data set [10], the system named is Human immunodeficiency virus 1. The data set can be described thus: Antiviral activity against HIV1 TLAV. It is filed as functional, organism-based. The following applies: Human immunodeficiency virus 1, TLAV.
Data set [11] has as its system Human immunodeficiency virus 1. The data set can be described thus: Antiviral activity against HIV1 BAL. The following applies: Human immunodeficiency virus 1, BAL. It is filed as functional, organism-based.
The test system of data set [12] is Human immunodeficiency virus 1. The data set can be described thus: Antiviral activity against HIV1 SF2. It is filed as functional, organism-based. The following applies: Human immunodeficiency virus 1, SF2.
Data set [13] relates to Human immunodeficiency virus 1. The data set can be described thus: Antiviral activity against HIV1 NL4-3. It is filed as functional, organism-based. Particulars: Human immunodeficiency virus 1, NL4-3.
Data set [14] relates to Human immunodeficiency virus 2. The data set can be described thus: Antiviral activity against HIV2 LAI. In kind it is functional, organism-based. The following applies: Human immunodeficiency virus 2, LAI.
Data set [15] relates to Human immunodeficiency virus 1. Description: Antiviral activity against HIV1 RF. In kind it is functional, organism-based. The following applies: Human immunodeficiency virus 1, RF.
Data set [16] has as its system Human immunodeficiency virus 1. The data set can be described thus: Antiviral activity against HIV1 93BR020 assessed as inhibition of virus mediated cell fusion between CEMx174 5.25M7 cells and PBMC/HIV1 93BR020 cells. It is filed as functional, organism-based. Particulars: Human immunodeficiency virus 1, 93BR020, CEMx174 5.25M7.
In data set [17] the test system is Human immunodeficiency virus 1. The data set can be described thus: Antiviral activity against HIV1 SF162 assessed as inhibition of virus mediated cell fusion between CEMx174 5.25M7 cells and PBMC/HIV1 SF162 cells. Particulars: Human immunodeficiency virus 1, SF162, CEMx174 5.25M7. It is filed as functional, organism-based.
A short description of data set [18]: Toxicity against human CEMx174 5.25M7 cells. In kind it is cell-based.
The nature of data set [19]: Toxicity against human MT2 cells. In kind it is cell-based.
The subject of data set [20] is Human immunodeficiency virus 1. The data set can be described thus: Antiviral activity against HIV1 3B assessed as inhibition of virus mediated cell fusion between MT2 cells and H9/HIV1 3B cells. Particulars: Human immunodeficiency virus 1, 3B. It is filed as functional, organism-based.
Data set [21] has as its system Human immunodeficiency virus 1. The data set can be described thus: Antiviral activity against HIV1 92UG029 assessed as inhibition of virus mediated cell fusion between CEMx174 5.25M7 cells and […] cells. It is filed as functional, organism-based. Particulars: Human immunodeficiency virus 1, 92UG029, CEMx174 5.25M7.
A short description of data set [22]: Toxicity against human U373-MAGI-CXCR4-CEM cells. It is filed as cell-based.
For data set [23], the system named is Human immunodeficiency virus 1. The data set can be described thus: Antiviral activity against HIV1 93TH051 assessed as inhibition of virus mediated cell fusion between CEMx174 5.25M7 cells and PBMC/HIV1 93TH051 cells. In kind it is functional, organism-based. The following applies: Human immunodeficiency virus 1, 93TH051, CEMx174 5.25M7.
The subject of data set [24] is Human immunodeficiency virus 1. The data set can be described thus: Antiviral activity against HIV1 3B. It is filed as functional, organism-based. The following applies: Human immunodeficiency virus 1, 3B.
Data set [25] has as its system Human immunodeficiency virus 1. Description: Antiviral activity against HIV1 BCF02 assessed as inhibition of virus mediated cell fusion between CEMx174 5.25M7 cells and […] cells. It is filed as functional, organism-based. Particulars: Human immunodeficiency virus 1, BCF02, CEMx174 5.25M7.
Data set [26] can be described thus: Toxicity against human U87-T4-CXCR4 cells. In kind it is cell-based, U-87MG ATCC.
Data set [27] deals with Human immunodeficiency virus 1. Description: Antiviral activity against HIV1 by multi-cycle antiviral assay. It is filed as functional, organism-based.
Data set [28] relates to Human immunodeficiency virus 1. Description: Antiviral activity against HIV1 by single-cycle antiviral assay. It is filed as functional, organism-based.
The subject of data set [29] is Human immunodeficiency virus. The data set can be described thus: Antiviral activity against HIV. It is filed as functional, organism-based. Particulars: Human immunodeficiency virus 1.
Data set [30] deals with Human immunodeficiency virus 1. Description: Antiviral activity against HIV1 infected in human MT4 cells. In kind it is functional, organism-based. The following applies: Human immunodeficiency virus 1, MT4.
Data set [31] in a line: Inhibition of HIV1 LTR-mediated transcription assessed as drug level causing 50% inhibition of protein/RNA complex formation incubated for 15 mins. Also on record: species or system Human immunodeficiency virus.
For a further data set, the system named is PBL. Description: Cytotoxicity against human PBL cells incubated for 4 days by MTT assay. It is filed as cell-based. The following applies: 96 h. For orientation: Tetrazolium dyes change colour on reduction, which living cells bring about.
Data set [32] concerns Human immunodeficiency virus 1. The data set can be described thus: Antiviral activity against HIV1 3B infected in human primary lymphocytes assessed as reduction in p24 production incubated for 4 days by ELISA method. In kind it is functional, organism-based. The following applies: Human immunodeficiency virus 1, 3B, 96 h. (In an ELISA, binding on a coated surface is turned into a signal by an enzyme label.)

Turning to `CN1N=C(N)c2cn([C@H]3CC[C@@H](CO)O3)c3ncnc1c23`, in data set [1], the pEC50 – broadly, the EC50 on a negative log10 scale, so that one unit is a factor of ten – was 4.68.
Regarding `COc1ccc(OCc2nc3ccccc3n3cccc23)cc1`, the EC50 (commonly the concentration at which the effect is half-maximal) in [2] was > 16 µg/mL.
For `CN1C(=O)[C@H](Cc2ccc(O)cc2)n2cccc2-c2ccccc21`, in [3], the IC90 (as a rule, the point of the concentration-response curve where the effect stands at 90%) is > 0.29 µg/mL.
Regarding `O=C1[C@H](Cc2ccc(O)cc2)n2cccc2-c2ccccc2N1CCc1ccc(O)cc1`, the 90% effect concentration (IC90) in data set [3] amounted to 0.8 µg/mL (≈ 1.88 µM). Besides, in [4], the CC50 worked out at 10 µg/mL (≈ 23.6 µM).
For `CC(=O)OCC1=C2C(=O)N(Cc3ccc(F)c(Cl)c3)C(=O)C2=C(O)C(=O)C1`, in data set [5], the pIC50 (in general, −log10 of the IC50, conventionally taken in molar units) is 4.91.
Turning to `CCOC(=O)c1ncc(O)c2c1C(=O)N(CC(c1ccccc1)c1ccccc1)C2=O`, the pEC50 in data set [6] was 5.51. This molecule also showed a CC50 in [7] of 25.2 µM.
As for `COc1ccc(Nc2nc3cc(C(F)(F)F)ccc3n3cccc23)cc1OC`, the EC50 in data set [2] was > 27 µg/mL.
On to `C[C@@H]1CN(C(=O)c2ccccc2)CCN1C(=O)C(=O)c1c[nH]c2cccnc12`, for which the pEC50 in data set [1] is 8.80.
Regarding `O=C(C(=O)N1CCN(C(=O)c2ccccc2)CC1)c1c[nH]c2cccc(F)c12`, the negative logarithm of the EC50 (pEC50) in data set [8], in data set [9], in data set [10], in [11], in data set [12] and in [13] was 6.07 each time. Moreover, the pEC50 in data set [14] is 6.07.
In the case of `Cc1ccc(C)n1-c1ccc(C(=O)O)c(O)c1`, the pEC50 in [15] was 5.77; in data set [16] it was 5.15; in [17], 4.69; in [20] it was 5.17; in [21], 4.98; in data set [12], 5.73. The pEC50 in data set [23] is 5.13; in data set [24], 5.98; in data set [25] it was 5.40. Further, the CC50 was 2490 µM in data set [18], 2760 µM in [19], 1860 µM in data set [22] and > 4000 µM in data set [26].
Consider `CCOC(=O)CCC(NC(=O)c1ccc(Nc2nc3cc(C(F)(F)F)ccc3n3cccc23)cc1)C(=O)OCC` (stereo not drawn), for which, in data set [2], the EC50 was > 39 µg/mL.
Regarding `O=C(NCc1ccc(F)cc1)c1ncc(O)c2c1C(=O)N(CCc1ccc(F)cc1)C2=O`, the pEC50 in data set [6] was 5.24. In data set [7], this molecule registered a CC50 of 30.8 µM.
As to `O=C(O)c1ccc(OCc2nc3ccccc3n3cccc23)cc1`, the EC50 in data set [2] was > 8 µg/mL.
Regarding `O=C1NC(c2ccc(O)cc2)c2c(-c3ccccc3)n[nH]c21` (stereo not drawn), the pEC50 was 5.85 in data set [27] and 5.74 in data set [28].
The molecule `CC1=C2C(=O)N(Cc3ccc(F)c(Cl)c3)C(=O)C2=C(O)C(=O)C1C` (stereo not drawn) gave a pIC50 in data set [5] of 5.17.
Consider `O=C(O)c1cc(-n2cccc2)ccc1Cl`, for which the pEC50 in data set [15] was 5.45; in data set [16] it was 5.00; in data set [17] it was 4.03; in [20], 4.52; in data set [21], 4.54; in [12] it was 5.32. The pEC50 in [23] is 4.24; in [24], 5.66; in [25], 4.33. Further, the CC50 in [18], in [19], in data set [22] and in data set [26] was > 4000 µM each time.
For `N#Cc1cn(COC(CO)CO)c2nc(N)nc(O)c12`, the pIC50 in [29] was 5.52.
On the same count and under the same terms, in the case of `N#Cc1cn(COCCO)c2ncnc(N)c12` it was 4.34.
Take `CCOC(=O)c1cc2c3cc(OC)ccc3c3ccc(N)cc3n2c1C`: the pEC50 in data set [30] was 3.92.
As to `C[C@@H]1CN(C(=O)c2ccccc2)CCN1C(=O)C(=O)c1c[nH]c2ncccc12`, the pEC50 in data set [1] was 8.77.
For `COc1cc2c(cc1OCCC(=O)Nc1cc(C(=O)Nc3cc(C(=O)Nc4cc(C(=O)NCCC(=N)N)n(C)c4)n(C)c3)n(C)c1)N=C[C@@H]1CCCN1C2=O`, in data set [31], the AC50 (usually the concentration at which the activity in the assay is half-maximal) is 15 µM.
Take `CCOC(=O)c1ncc(O)c2c1C(=O)N(CCc1ccc(OC)c(OC)c1)C2=O`: the pEC50 in data set [6] is 5.04. This molecule gave a CC50 in data set [7] of 33.5 µM.
For `O=C(C[C@H]1C(=O)Nc2ccccc2C2CCCN21)OCc1ccccc1` (stereo partly drawn), the pEC50 was 4.54 in the data set with PBL and 6.07 in data set [32].
On to `COc1cc2c(cc1OCCC(=O)Nc1cc(C(=O)Nc3cc(C(=O)NCCC(=N)N)n(C)c3)n(C)c1)N=C[C@@H]1CCCN1C2=O`, for which, in data set [31], the concentration at half-maximal activity (AC50) came to 20 µM.
With `O=C(O)c1ccc(Nc2nc3cc(C(F)(F)F)ccc3n3cccc23)cc1`, the EC50 in [2] was > 15 µg/mL.
With `Cn1ccc2c1C(=O)Nc1ccccc1S2`, the pEC50 was < 3.36 in the data set on PBL and 4.80 in [32].
